Like-named read-outs stand apart in the source and are kept apart here.
Biological target: T1, Full-length (FL)-PRMT5-MEP50 enzyme complex (Homo sapiens, UniProt O14744)
T1 construct: Full-length (FL)-PRMT5-MEP50 enzyme complex (recombinant proteins from baculovirus-transfected Sf21 cells: FL-PRMT5; MW=73837 kDa and FL-MEP50; MW=38614); made in house; host or cells: baculovirus-transfected Sf21 insect cells
Assay: PRMT5-MEP50 Enzyme Methylation Assay
Format: biochemical
Settings: 1.0 nM PRMT5-MEP50, 75 nM biotinylated peptide, 15 μM SAM
Outline: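 Compound was pre-incubated 60 min at 37°C with 1.0 nM enzyme and 15 μM SAM (final) in 50 mM Bicine pH 8.0, then 75 nM biotinylated H4R3(Me1) peptide was added and reacted 150 min; twenty-point 1:2 titration from 100000 nM, 1% DMSO. Formic acid quench; SAMDI mass spectrometry measured Me1-to-Me2 conversion, EC50 by 4- or 7-parameter regression.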

[1] = one EC50: 4 parameters single site sigmoidal model, EC50 1: first value of 7 parameters biphasic model, read-out: Enzyme Methylation Assay (EC50 or EC50 1)
[2] = second EC50 of 7 parameters biphasic model, read-out: Enzyme Methylation Assay (EC50 2)

T1 sequence (O14744 whole entry): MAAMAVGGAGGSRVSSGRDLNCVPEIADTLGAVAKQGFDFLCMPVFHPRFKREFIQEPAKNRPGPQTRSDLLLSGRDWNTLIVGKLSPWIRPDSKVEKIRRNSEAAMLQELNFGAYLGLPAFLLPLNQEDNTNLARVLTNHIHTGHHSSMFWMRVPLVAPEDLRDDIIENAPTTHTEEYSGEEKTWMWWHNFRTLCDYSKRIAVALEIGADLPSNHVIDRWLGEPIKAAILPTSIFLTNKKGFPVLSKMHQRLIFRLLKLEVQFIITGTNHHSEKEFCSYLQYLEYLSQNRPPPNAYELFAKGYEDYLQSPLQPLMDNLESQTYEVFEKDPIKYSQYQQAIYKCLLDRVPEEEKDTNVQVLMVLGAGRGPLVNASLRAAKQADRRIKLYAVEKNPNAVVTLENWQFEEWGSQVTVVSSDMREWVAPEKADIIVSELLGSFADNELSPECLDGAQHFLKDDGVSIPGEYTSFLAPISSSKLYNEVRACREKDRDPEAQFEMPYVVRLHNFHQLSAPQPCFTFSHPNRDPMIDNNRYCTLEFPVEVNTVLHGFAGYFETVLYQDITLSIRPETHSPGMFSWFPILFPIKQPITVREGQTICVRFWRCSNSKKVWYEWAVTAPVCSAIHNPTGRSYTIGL
T1 sequence (Q9BQA1 whole entry partner): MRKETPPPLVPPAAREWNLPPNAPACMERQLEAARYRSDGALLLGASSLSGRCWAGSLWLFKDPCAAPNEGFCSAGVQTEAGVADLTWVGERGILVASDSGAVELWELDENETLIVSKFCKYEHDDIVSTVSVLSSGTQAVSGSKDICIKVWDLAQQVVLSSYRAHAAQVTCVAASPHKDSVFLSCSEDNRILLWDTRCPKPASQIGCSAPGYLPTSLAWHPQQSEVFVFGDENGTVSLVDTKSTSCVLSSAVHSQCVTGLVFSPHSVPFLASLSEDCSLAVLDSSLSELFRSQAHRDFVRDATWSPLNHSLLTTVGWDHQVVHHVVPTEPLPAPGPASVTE

SMILES	EC50 [1] [nM]	EC50 [2] [nM]
Cc1ncnc2c1ccn2[C@@H]1O[C@@H]2[C@@H](Oc3ccc4cc5c(nc4c3)NCC5)CC[C@]2(O)[C@H]1O [Example 89, (2R,3R,3aS,6S,6aR)-6-((2,3-dihydro-1H-pyrrolo[2,3-b]quinolin-7-yl)oxy)-2-(4-methyl-7H-pyrrolo[2,3-d]pyrimidin-7-yl)hexahydro-3aH-cyclopenta[b]furan-3,3a-diol]	1.3	
Cc1nc(C)c2ccn([C@@H]3O[C@@H]4[C@H](Cc5ccc6cc(F)c(N)nc6c5)CC[C@]4(O)[C@H]3O)c2n1 [Example 90, (2R,3R,3aS,6S,6aR)-6-((2-amino-3-fluoroquinolin-7-yl)methyl)-2-(2,4-dimethyl-7H-pyrrolo[2,3-d]pyrimidin-7-yl)hexahydro-3aH-cyclopenta[b]furan-3,3a-diol]	0.9	
Cc1nc(C)c2ccn([C@@H]3O[C@@H]4[C@H](Cc5ccc6cc(Cl)c(N)nc6c5)CC[C@]4(O)[C@H]3O)c2n1 [Example 91, (2R,3R,3aS,6S,6aR)-6-((2-amino-3-chloroquinolin-7-yl)methyl)-2-(2,4-dimethyl-7H-pyrrolo[2,3-d]pyrimidin-7-yl)hexahydro-3aH-cyclopenta[b]furan-3,3a-diol]	0.4	
CNc1ncnc2c1ccn2[C@@H]1O[C@@H]2[C@H](Cc3ccc4cc(Br)c(N)nc4c3)CC[C@]2(O)[C@H]1O [Example 92, (2R,3R,3aS,6S,6aR)-6-((2-amino-3-bromoquinolin-7-yl)methyl)-2-(4-(methylamino)-7H-pyrrolo[2,3-d]pyrimidin-7-yl)hexahydro-3aH-cyclopenta[b]furan-3,3a-diol]	0.5	
CNc1ncnc2c1ccn2[C@@H]1C[C@H](COc2ccc3cc(Br)c(N)nc3c2)[C@@](C)(O)[C@H]1O [Example 93, (1R,2S,3R,5R)-5-(((2-amino-3-bromoquinolin-7-yl)oxy)methyl)-1-methyl-3-(4-(methylamino)-7H-pyrrolo[2,3-d]pyrimidin-7-yl)cyclopentane-1,2-diol]	0.5	110
CNc1ncnc2c1ccn2[C@@H]1O[C@@H]2[C@@H](Oc3ccc4cc(Br)c(N)nc4c3)CC[C@]2(O)[C@H]1O [Example 94, (2R,3R,3aS,6S,6aR)-6-((2-amino-3-bromoquinolin-7-yl)oxy)-2-(4-(methylamino)-7H-pyrrolo[2,3-d]pyrimidin-7-yl)hexahydro-3aH-cyclopenta[b]furan-3,3a-diol]	0.8	
CNc1ncnc2c1ccn2[C@@H]1O[C@@H]2[C@H](Cc3ccc4cc(F)c(N)nc4c3)CC[C@]2(O)[C@H]1O [Example 95, (2R,3R,3aS,6S,6aR)-6-((2-amino-3-fluoroquinolin-7-yl)methyl)-2-(4-(methylamino)-7H-pyrrolo[2,3-d]pyrimidin-7-yl)hexahydro-3aH-cyclopenta[b]furan-3,3a-diol]	2.8	
CNc1ncnc2c1c(F)cn2[C@@H]1O[C@@H]2[C@H](Cc3ccc4cc(Br)c(N)nc4c3)CC[C@]2(O)[C@H]1O [Example 96, (2R,3R,3aS,6S,6aR)-6-((2-amino-3-bromoquinolin-7-yl)methyl)-2-(5-fluoro-4-(methylamino)-7H-pyrrolo[2,3-d]pyrimidin-7-yl)hexahydro-3aH-cyclopenta[b]furan-3,3a-diol]	0.8	
CNc1ncnc2c1ccn2[C@@H]1C[C@@H]2[C@H](Cc3ccc4cc(Br)c(N)nc4c3)CC[C@]2(O)[C@H]1O [Example 97, (1S,2R,3aR,4S,6aR)-4-((2-amino-3-bromoquinolin-7-yl)methyl)-2-(4-(methylamino)-7H-pyrrolo[2,3-d]pyrimidin-7-yl)hexahydropentalene-1,6a(1H)-diol]	0.4	
C[C@]1(COc2ccc3cccnc3c2)O[C@@H](n2ccc3c(N)ncnc32)[C@H](O)[C@@H]1O [Example 98, (2R,3S,4R,5R)-5-(4-amino-7H-pyrrolo[2,3-d]pyrimidin-7-yl)-2-methyl-2-((quinolin-7-yloxy)methyl)tetrahydrofuran-3,4-diol]	3.4	2570
C[C@@]1(O)[C@@H](COc2ccc3cccnc3c2)O[C@@H](n2ccc3c(N)ncnc32)[C@@H]1O [Example 99, (2R,3S,4R,5R)-5-(4-amino-7H-pyrrolo[2,3-d]pyrimidin-7-yl)-3-methyl-2-((quinolin-7-yloxy)methyl)tetrahydrofuran-3,4-diol]	1.7	1880
C[C@]1(COc2ccc3cc(Br)c(N)nc3c2)C[C@@H](n2ccc3c(N)ncnc32)[C@H](O)[C@@H]1O [Example 100, (1S,2R,3R,5R)-3-(((2-amino-3-bromoquinolin-7-yl)oxy)methyl)-5-(4-amino-7H-pyrrolo[2,3-d]pyrimidin-7-yl)-3-methylcyclopentane-1,2-diol]	0.6	32
C[C@]1(COc2ccc3ccc(N)nc3c2)C[C@@H](n2ccc3c(N)ncnc32)[C@H](O)[C@@H]1O [Example 101, (1S,2R,3R,5R)-5-(4-amino-7H-pyrrolo[2,3-d]pyrimidin-7-yl)-3-(((2-aminoquinolin-7-yl)oxy)methyl)-3-methylcyclopentane-1,2-diol]	0.3	
C[C@@]1(O)[C@@H](CCc2ccc3cc(Br)c(N)nc3c2)C[C@@H](n2ccc3c(N)ncnc32)[C@@H]1O [Example 103, (1R,2S,3R,5S)-5-(2-(2-amino-3-bromoquinolin-7-yl)ethyl)-3-(4-amino-7H-pyrrolo[2,3-d]pyrimidin-7-yl)-1-methylcyclopentane-1,2-diol]	0.4	40.7
Nc1ccc2ccc(O[C@H]3CC[C@@]4(O)[C@@H]3O[C@@H](n3ccc5c(N)ncnc53)[C@@H]4O)cc2n1 [Example 104, (2R,3R,3aS,6S,6aR)-2-(4-amino-7H-pyrrolo[2,3-d]pyrimidin-7-yl)-6-((2-aminoquinolin-7-yl)oxy)hexahydro-2H-cyclopenta[b]furan-3,3a-diol]	3.8	
C[C@@]1(O)[C@@H](COc2ccc3ccc(N)nc3c2)C[C@@H](n2ccc3cncnc32)[C@@H]1O [Example 105, (1R,2S,3R,5R)-5-(((2-aminoquinolin-7-yl)oxy)methyl)-1-methyl-3-(7H-pyrrolo[2,3-d]pyrimidin-7-yl)cyclopentane-1,2-diol]	0.3	21.9
Cc1cc2ccc(OC[C@H]3C[C@@H](n4ccc5c(C)ncnc54)[C@H](O)[C@]3(C)O)cc2nc1N [Example 106, (1R,2S,3R,5R)-5-(((2-amino-3-methylquinolin-7-yl)oxy)methyl)-1-methyl-3-(4-methyl-7H-pyrrolo[2,3-d]pyrimidin-7-yl)cyclopentane-1,2-diol]	0.3	
Cc1ncnc2c1ccn2[C@@H]1O[C@@H]2[C@H](Cc3ccc4ccc(N)nc4c3)CC[C@]2(O)[C@H]1O [Example 107, (2R,3R,3aS,6S,6aR)-6-((2-aminoquinolin-7-yl)methyl)-2-(4-methyl-7H-pyrrolo[2,3-d]pyrimidin-7-yl)hexahydro-2H-cyclopenta[b]furan-3,3a-diol]	0.2	
Nc1nc2cc(C[C@@H]3CC[C@@]4(O)[C@@H]3O[C@@H](n3cc(F)c5c(N)ncnc53)[C@@H]4O)ccc2cc1Br [Example 108, (2R,3R,3aS,6S,6aR)-6-((2-amino-3-bromoquinolin-7-yl)methyl)-2-(4-amino-5-fluoro-7H-pyrrolo[2,3-d]pyrimidin-7-yl)hexahydro-2H-cyclopenta[b]furan-3,3a-diol]	0.2	
Cc1ncnc2c1ccn2[C@@H]1C[C@](C)(CCc2ccc3cc(Br)c(N)nc3c2)[C@@H](O)[C@H]1O [Example 109, (1S,2R,3S,5R)-3-(2-(2-amino-3-bromoquinolin-7-yl)ethyl)-3-methyl-5-(4-methyl-7H-pyrrolo[2,3-d]pyrimidin-7-yl)cyclopentane-1,2-diol]	0.7	
Cc1ncnc2c1ccn2[C@@H]1C[C@](C)(CCc2ccc3cc4c(nc3c2)NCC4)[C@@H](O)[C@H]1O [Example 110, (1S,2R,3S,5R)-3-(2-(2,3-dihydro-1H-pyrrolo[2,3-b]quinolin-7-yl)ethyl)-3-methyl-5-(4-methyl-7H-pyrrolo[2,3-d]pyrimidin-7-yl)cyclopentane-1,2-diol]	0.9	
C[C@]1(COc2ccc3cc(Br)c(N)nc3c2)C[C@@H](n2ccc3c(N)ncnc32)[C@H](O)[C@]1(C)O [Example 111, (1R,2S,3R,5R)-5-(((2-amino-3-bromoquinolin-7-yl)oxy)methyl)-3-(4-amino-7H-pyrrolo[2,3-d]pyrimidin-7-yl)-1,5-dimethylcyclopentane-1,2-diol]	30.6	2660
Cc1ncnc2c1ccn2[C@@H]1O[C@@H]2[C@@H](Oc3ccc4cc(Cl)c(N)nc4c3)CC[C@]2(O)[C@H]1O [Example 112, (2R,3R,3aS,6S,6aR)-6-((2-amino-3-chloroquinolin-7-yl)oxy)-2-(4-methyl-7H-pyrrolo[2,3-d]pyrimidin-7-yl)hexahydro-2H-cyclopenta[b]furan-3,3a-diol]	0.6	
Cc1ncnc2c1ccn2[C@@H]1O[C@@H]2[C@@H](Oc3ccc4ccc(N)nc4c3)CC[C@]2(O)[C@H]1O [Example 113, (2R,3R,3aS,6S,6aR)-6-((2-aminoquinolin-7-yl)oxy)-2-(4-methyl-7H-pyrrolo[2,3-d]pyrimidin-7-Yl)hexahydro-2H-cyclopenta[b]furan-3,3a-diol]	1.1	
Cc1nc(N)nc2c1ccn2[C@@H]1O[C@@H]2[C@@H](Oc3ccc4cc(Br)c(N)nc4c3)CC[C@]2(O)[C@H]1O [Example 114, (2R,3R,3aS,6S,6aR)-6-((2-amino-3-bromoquinolin-7-yl)oxy)-2-(2-amino-4-methyl-7H-pyrrolo[2,3-d]pyrimidin-7-yl)hexahydro-3aH-cyclopenta[b]furan-3,3a-diol]	1.4	

Source: patent publication US20230062119A1, “USE OF BIOMARKERS IN IDENTIFYING PATIENTS THAT WILL BE RESPONSIVE TO TREATMENT WITH A PRMT5 INHIBITOR” (Merck Sharp & Dohme LLC, priority 2019, published 2023)
